This passage reports IC50 results from ChEMBL document CHEMBL1201862, “PubChem BioAssay data set” (2004).

The IC50 is the concentration at which inhibition is half-maximal.

The assay concerns the target Envelope glycoprotein gp160 (Human immunodeficiency virus 1, UniProt Q6QLK5). The assay can be described thus: inhibitors of HIV fusion peptide binding, primary screen, biochemical, uHTS, fluorescence dequenching (AID 1986).

Active and inactive are the calls of the source. No stated cut-off is given here; in the data, actives have a measured IC50 and inactives only a lower limit.

Sequence of Envelope glycoprotein gp160 (Q6QLK5 whole entry, the tested form may be a part): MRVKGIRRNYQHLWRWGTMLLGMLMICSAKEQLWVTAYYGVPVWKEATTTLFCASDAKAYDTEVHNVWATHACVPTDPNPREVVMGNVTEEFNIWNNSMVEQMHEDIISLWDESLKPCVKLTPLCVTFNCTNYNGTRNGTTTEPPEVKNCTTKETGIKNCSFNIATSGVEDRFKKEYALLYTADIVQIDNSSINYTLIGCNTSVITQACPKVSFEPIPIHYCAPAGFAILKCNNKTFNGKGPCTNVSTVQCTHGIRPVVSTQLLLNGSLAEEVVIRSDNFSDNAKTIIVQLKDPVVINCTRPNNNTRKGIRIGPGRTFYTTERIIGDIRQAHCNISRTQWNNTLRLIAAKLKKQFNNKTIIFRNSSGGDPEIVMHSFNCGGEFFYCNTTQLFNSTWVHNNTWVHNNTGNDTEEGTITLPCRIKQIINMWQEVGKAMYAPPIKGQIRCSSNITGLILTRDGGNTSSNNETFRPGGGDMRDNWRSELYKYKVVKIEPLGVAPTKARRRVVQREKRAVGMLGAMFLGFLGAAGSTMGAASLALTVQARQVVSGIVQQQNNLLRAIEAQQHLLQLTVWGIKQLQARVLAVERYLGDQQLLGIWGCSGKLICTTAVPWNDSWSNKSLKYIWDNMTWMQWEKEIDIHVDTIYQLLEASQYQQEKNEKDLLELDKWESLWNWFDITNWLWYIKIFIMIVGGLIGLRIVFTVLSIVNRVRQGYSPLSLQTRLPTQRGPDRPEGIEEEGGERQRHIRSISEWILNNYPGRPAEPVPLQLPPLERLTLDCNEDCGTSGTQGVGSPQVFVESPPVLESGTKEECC

`COc1ccc(C(=O)/C=C/c2cccc(OCc3ccccc3)c2)cc1CSCC(=O)O`: the IC50 is 29.2 µM (active).
